Test results from patent US5646131A, “Method for solubilizing drugs using cyclodextrins and carboxylic acids” (The Arab Company For Drug Industries And Medical …, priority 1995, dated 1997).
In brackets after ≈: the same amount, converted by molar mass. Where two headings read alike, the source gives them in different places.

Legend:
[1] = 30° C.; for Solubility, beta-cyclodextrin + citric acid / Solubility, beta-cyclodextrin + glutaric acid / Solubility, beta-cyclodextrin + lactic acid / Solubility, beta-cyclodextrin + tartaric acid: 2% β-cyclodextrin; for Solubility, beta-cyclodextrin + lactic acid: 1% lactic acid; for Solubility in 2% aq. beta CD soln.: water containing 2% β-cyclodextrin
Method: The solubilities (in mg/ml) of the drugs were investigated at 30° C., in water; in water containing 2% β-cyclodextrin; and in aqueous solution of 2% selected cyclodextrin and 1% selected polyfunctional acid or corresponding salt.

[2] = physchem; conditions: water
[3] = with β-cyclodextrin; Menard et al 1990; cited from earlier work

| Compound | Solubility, beta-cyclodextrin + citric acid ([1]; 1% citric acid, aqueous) [µg/mL] | Solubility, beta-cyclodextrin + glutaric acid ([1]; 1% glutaric acid, aqueous) [µg/mL] | Solubility, beta-cyclodextrin + lactic acid ([1]; aqueous) [µg/mL] | Solubility, beta-cyclodextrin + tartaric acid ([1]; 1% tartaric acid, aqueous) [µg/mL] | Solubility in 2% aq. beta CD soln. [1] [µg/mL] | solubility [2] [µg/mL] | Relationship between solubility and concentration at different pH [3] | Solubility, beta-cyclodextrin + glutaric acid (*trisodium salt) (2% beta-cd, 1% glutarate salt) [µg/mL] | Solubility, beta-cyclodextrin + tartaric acid (*trisodium salt) (2% beta-cd, 1% tartrate salt) [µg/mL] | Solubility in 2% aq. beta CD soln. (water, 2% beta-cyclodextrin) [µg/mL] | Solubility, alpha-cyclodextrin + citric acid ([1]; 2% α-cyclodextrin, 1% citric acid, aqueous) [µg/mL] | Solubility, alpha-cyclodextrin + glutaric acid ([1]; 2% α-cyclodextrin, 1% glutaric acid, aqueous) [µg/mL] | Solubility, alpha-cyclodextrin + tartaric acid ([1]; 2% α-cyclodextrin, 1% tartaric acid, aqueous) [µg/mL] | Solubility, gamma-cyclodextrin + citric acid ([1]; 2% γ-cyclodextrin, 1% citric acid, aqueous) [µg/mL] | Solubility, gamma-cyclodextrin + glutaric acid ([1]; 2% γ-cyclodextrin, 1% glutaric acid, aqueous) [µg/mL] | Solubility, gamma-cyclodextrin + tartaric acid ([1]; 2% γ-cyclodextrin, 1% tartaric acid, aqueous) [µg/mL] | Solubility in water ([1]; water) |
| --- | --- | --- | --- | --- | --- | --- | --- | --- | --- | --- | --- | --- | --- | --- | --- | --- | --- |
| COc1cc(N)c(Cl)cc1C(=O)NC1CCN(CCCOc2ccc(F)cc2)CC1OC (stereo not shown) [Cisapride] | 550 | 2070 | 11400 | 4380 | 15 (≈ 32.2 µM) | 3 (≈ 6.44 µM) |  |  |  |  |  |  |  |  |  |  |  |
| CC(C)Cc1ccc(C(C)C(=O)O)cc1 (stereo not shown) [Ibuprofen] |  |  |  |  |  | < 10 | the relationship between solubility and concentration is the same at different pH levels | 3000 | 1360 | 690 (≈ 3340 µM) |  |  |  |  |  |  |  |
| CC(C)(C)c1ccc(C(O)CCCN2CCC(C(O)(c3ccccc3)c3ccccc3)CC2)cc1 (stereo not shown) [Terfenadine] | 5680 | 5490 | 8870 | 5210 | 10 (≈ 21.2 µM) | < 10 |  |  |  |  | 2150 | 7170 | 1310 | 2200 | 6080 | 1220 |  |
| CN1C(C(=O)Nc2ccccn2)=C(O)c2ccccc2S1(=O)=O [Piroxicam] |  |  |  |  | 72 (≈ 217 µM) |  |  |  |  |  |  |  |  |  |  |  | insoluble |
